These results are taken from the supplement of paper PMC11208160.
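Further: IS621 bridge recombinase in Escherichia coli cells against a fixed T5 target plasmid.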

This series is described as follows: recombinant UMI read abundance after kanamycin selection (control-corrected) (log10(CPM+1)); higher = more efficient recombination; extreme values may be limits of the assay; sequences stand for … in AGTGCAGAGAAAATCGGCCAGTTTTCTCTGCCTGCAGTCCGCATGCCGTGGGACCCCTTGGGTTCTAACCTGTTGCCTAGATTTATGCAGCGGACTGCCTTTCTCCCAAAGTGATAAACCGG…AGGTTGGTTTCACT; site = the 11-nt donor. The gist of the method:
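Sequencing read counts were converted to CPM, averaged over two replicates and scaled by control-derived factors. Results are given as log10(CPM+1). The reads covered the donor–target junction of recombinant UMIs from a pooled Escherichia coli screen of donor and donor-binding-loop pairs for the IS621 bridge recombinase.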
In the case of “CCAGTTTCATGGACCGGTTTTCCCGGTAATCCGTATTTGAC (site CTAGTATCTGT)”, the “recombinant UMI read abundance (log10)” value amounted to 0.

Regarding “CCATAAACATGGACCGGTTTTCCCGGTAATCCGTATTTGAA (site CCATAAACTTT)”, the “recombinant UMI read abundance (log10)” value came out at 1.22.

With “CCATACTCATGGACCGGTTTTCCCGGTAATCCGTATTTGCA (site ACATACTCTTG)”, the “recombinant UMI read abundance (log10)” value worked out at 0.648.

Turning to “CCATACTCATGGACCGGTTTTCCCGGTAATCCGTATTTGCA (site CCATACTCTTG)”, the “recombinant UMI read abundance (log10)” value is 2.11.

Regarding “CCATACTCATGGACCGGTTTTCCCGGTAATCCGTATTTGCA (site GCATACTCTTG)”, the “recombinant UMI read abundance (log10)” value worked out at 0.

In the case of “CCATACTCATGGACCGGTTTTCCCGGTAATCCGTATTTGCA (site TCATACTCTTG)”, the “recombinant UMI read abundance (log10)” value was found to be 0.

In the case of “CCATACTCATGGACCGGTTTTCCCGGTAATCCGTATTTGGC (site CCATACTCTGC)”, the “recombinant UMI read abundance (log10)” value was determined as 0.585.

Turning to “CCATAGCCATGGACCGGTTTTCCCGGTAATCCGTATTTGCC (site CCATAGCCTGG)”, the “recombinant UMI read abundance (log10)” value stood at 0.

On to “CCATAGCCATGGACCGGTTTTCCCGGTAATCCGTATTTGCC (site CCCTAGCCTGG)”, for which the “recombinant UMI read abundance (log10)” value worked out at 0.

Consider “CCATAGCCATGGACCGGTTTTCCCGGTAATCCGTATTTGCC (site CCGTAGCCTGG)”, for which the “recombinant UMI read abundance (log10)” value amounted to 0.

As to “CCATAGCCATGGACCGGTTTTCCCGGTAATCCGTATTTGCC (site CCTTAGCCTGG)”, the “recombinant UMI read abundance (log10)” value amounted to 0.

For the sequence “CCATAGTCATGGACCGGTTTTCCCGGTAATCCGTATTTGAA (site CCATAGTCTTT)”, the “recombinant UMI read abundance (log10)” value worked out at 1.86.

On to “CCATATGCATGGACCGGTTTTCCCGGTAATCCGTATTTGCA (site CCATATGCTTG)”, for which the “recombinant UMI read abundance (log10)” value was determined as 0.198.

As to “CCATCCTCATGGACCGGTTTTCCCGGTAATCCGTATTTGGT (site CCATCCTCTAC)”, the “recombinant UMI read abundance (log10)” value amounted to 1.38.

Consider “CCATCTACATGGACCGGTTTTCCCGGTAATCCGTATTTGTG (site ACATCTACTCA)”, for which the “recombinant UMI read abundance (log10)” value stood at 0.0369.

For “CCATCTACATGGACCGGTTTTCCCGGTAATCCGTATTTGTG (site CCATCTACTCA)”, the “recombinant UMI read abundance (log10)” value is 0.0215.

In the case of “CCATCTACATGGACCGGTTTTCCCGGTAATCCGTATTTGTG (site GCATCTACTCA)”, the “recombinant UMI read abundance (log10)” value turned out to be 0.00588.

In the case of “CCATCTACATGGACCGGTTTTCCCGGTAATCCGTATTTGTG (site TCATCTACTCA)”, the “recombinant UMI read abundance (log10)” value came to 0.

For “CCATCTGCATGGACCGGTTTTCCCGGTAATCCGTATTTGAA (site CCATCTGCTTT)”, the “recombinant UMI read abundance (log10)” value is 1.91.

Take “CCATGGGCATGGACCGGTTTTCCCGGTAATCCGTATTTGAG (site CCATGGGCTCT)”: the “recombinant UMI read abundance (log10)” value stood at 0.633.

For the sequence “CCATGGTCATGGACCGGTTTTCCCGGTAATCCGTATTTGAA (site CCATGGTCTTT)”, the “recombinant UMI read abundance (log10)” value turned out to be 0.724.

In the case of “CCATGTGCATGGACCGGTTTTCCCGGTAATCCGTATTTGAA (site CCATGTGCTTT)”, the “recombinant UMI read abundance (log10)” value is 0.336.

As for “CCCACCCCATGGACCGGTTTTCCCGGTAATCCGTATTTGGC (site CCCACCCCTGC)”, the “recombinant UMI read abundance (log10)” value was 0.

In the case of “CCCACTACATGGACCGGTTTTCCCGGTAATCCGTATTTGTT (site CCCACTACTAA)”, the “recombinant UMI read abundance (log10)” value turned out to be 0.141.

For the sequence “CCCAGTCCATGGACCGGTTTTCCCGGTAATCCGTATTTGCA (site CCCAGTCCTTG)”, the “recombinant UMI read abundance (log10)” value worked out at 0.

“CCCAGTCCATGGACCGGTTTTCCCGGTAATCCGTATTTGCA (site CCCCGTCCTTG)”: the “recombinant UMI read abundance (log10)” value was 0.

Consider “CCCAGTCCATGGACCGGTTTTCCCGGTAATCCGTATTTGCA (site CCCGGTCCTTG)”, for which the “recombinant UMI read abundance (log10)” value came to 0.00873.

Consider “CCCAGTCCATGGACCGGTTTTCCCGGTAATCCGTATTTGCA (site CCCTGTCCTTG)”, for which the “recombinant UMI read abundance (log10)” value is 0.0169.

For the sequence “CCCATATCATGGACCGGTTTTCCCGGTAATCCGTATTTGAT (site CCCATATCTAT)”, the “recombinant UMI read abundance (log10)” value is 0.

Take “CCCATATCATGGACCGGTTTTCCCGGTAATCCGTATTTGTA (site CCCATATCTAA)”: the “recombinant UMI read abundance (log10)” value is 0.0053.

On to “CCCATATCATGGACCGGTTTTCCCGGTAATCCGTATTTGTA (site CCCATATCTCA)”, for which the “recombinant UMI read abundance (log10)” value was found to be 0.0171.

Consider “CCCATATCATGGACCGGTTTTCCCGGTAATCCGTATTTGTA (site CCCATATCTGA)”, for which the “recombinant UMI read abundance (log10)” value stood at 0.

Turning to “CCCATATCATGGACCGGTTTTCCCGGTAATCCGTATTTGTA (site CCCATATCTTA)”, the “recombinant UMI read abundance (log10)” value was found to be 0.903.

“CCCATATCATGGACCGGTTTTCCCGGTAATCCGTATTTGTC (site ACCATATCTGA)”: the “recombinant UMI read abundance (log10)” value amounted to 0.

Consider “CCCATATCATGGACCGGTTTTCCCGGTAATCCGTATTTGTC (site CACATATCTGA)”, for which the “recombinant UMI read abundance (log10)” value turned out to be 0.

As to “CCCATATCATGGACCGGTTTTCCCGGTAATCCGTATTTGTC (site CCAATATCTGA)”, the “recombinant UMI read abundance (log10)” value is 0.

As for “CCCATATCATGGACCGGTTTTCCCGGTAATCCGTATTTGTC (site CCCAAATCTGA)”, the “recombinant UMI read abundance (log10)” value worked out at 0.

Regarding “CCCATATCATGGACCGGTTTTCCCGGTAATCCGTATTTGTC (site CCCACATCTGA)”, the “recombinant UMI read abundance (log10)” value was found to be 0.

On to “CCCATATCATGGACCGGTTTTCCCGGTAATCCGTATTTGTC (site CCCAGATCTGA)”, for which the “recombinant UMI read abundance (log10)” value worked out at 0.

With “CCCATATCATGGACCGGTTTTCCCGGTAATCCGTATTTGTC (site CCCATAACTGA)”, the “recombinant UMI read abundance (log10)” value was found to be 0.

Consider “CCCATATCATGGACCGGTTTTCCCGGTAATCCGTATTTGTC (site CCCATACCTGA)”, for which the “recombinant UMI read abundance (log10)” value is 0.34.

“CCCATATCATGGACCGGTTTTCCCGGTAATCCGTATTTGTC (site CCCATAGCTGA)”: the “recombinant UMI read abundance (log10)” value is 0.

Take “CCCATATCATGGACCGGTTTTCCCGGTAATCCGTATTTGTC (site CCCATATCTAA)”: the “recombinant UMI read abundance (log10)” value amounted to 0.00469.

As to “CCCATATCATGGACCGGTTTTCCCGGTAATCCGTATTTGTC (site CCCATATCTCA)”, the “recombinant UMI read abundance (log10)” value stood at 0.

Regarding “CCCATATCATGGACCGGTTTTCCCGGTAATCCGTATTTGTC (site CCCATATCTGA)”, the “recombinant UMI read abundance (log10)” value was 0.747.

In the case of “CCCATATCATGGACCGGTTTTCCCGGTAATCCGTATTTGTC (site CCCATATCTGC)”, the “recombinant UMI read abundance (log10)” value was 0.

In the case of “CCCATATCATGGACCGGTTTTCCCGGTAATCCGTATTTGTC (site CCCATATCTGG)”, the “recombinant UMI read abundance (log10)” value was 0.

For “CCCATATCATGGACCGGTTTTCCCGGTAATCCGTATTTGTC (site CCCATATCTGT)”, the “recombinant UMI read abundance (log10)” value amounted to 0.

Turning to “CCCATATCATGGACCGGTTTTCCCGGTAATCCGTATTTGTC (site CCCATATCTTA)”, the “recombinant UMI read abundance (log10)” value was found to be 0.

With “CCCATATCATGGACCGGTTTTCCCGGTAATCCGTATTTGTC (site CCCATCTCTGA)”, the “recombinant UMI read abundance (log10)” value is 0.

For the sequence “CCCATATCATGGACCGGTTTTCCCGGTAATCCGTATTTGTC (site CCCATGTCTGA)”, the “recombinant UMI read abundance (log10)” value worked out at 0.

“CCCATATCATGGACCGGTTTTCCCGGTAATCCGTATTTGTC (site CCCATTTCTGA)”: the “recombinant UMI read abundance (log10)” value was 0.731.
